Experiments:
[1] = accepted value; cited from earlier work
humans = assay: administration to humans, adverse effects; format: in vivo, human; conditions: doses exceeding 15 g/m^2
dogs = conditions: dog, in vivo
mice = conditions: mouse, in vivo
aldose reductase = conditions: humans, mainly in the 1980s; cited from earlier work

## [Cl-].[Na+] [common table salt]
[1]
  oral LD50: 3750 mg/kg

## O=S(=O)([O-])CCSSCCS(=O)(=O)[O-].[Na+].[Na+]
humans
  adverse effects: no adverse effects
dogs
  adverse effects: no adverse effects
mice
  adverse effects: no adverse effects

## O=C1NC(=O)[C@@]2(CCOc3ccc(F)cc32)N1 [sorbinil]
Aldose reductase
  efficacy in slowing the progress of diabetic retinopathy: some efficacy
  tolerability in patients: not well tolerated
